Assay results published in a melting point compilation (Tetko et al.; mined from patent text by program, amines drawn as free bases though some values may be those of a salt).

melting point [°C] | Compound
210 | Cc1ccc(C(=O)Nc2ccc(C[C@H](NC(=O)Nc3ccccc3S(=O)(=O)c3ccccc3)C(=O)O)cc2)c(Cl)n1
160 to 161 | CNC(=O)N1CC[C@H](OCc2cc(C(F)(F)F)cc(C(F)(F)F)c2)[C@H](Cc2ccccc2)C1 (relative stereo)
148 to 150 | O=C1CCC(=O)N1c1ncccn1
108 to 110 | CCOC(=O)c1[nH]c(C)c(C(C)(C)C)c1C
245 to 247 | Cc1cccc(N2CC(=O)NC(=O)N2)c1
220 to 221 | COc1cccc(Cn2nc(C(=O)O)c3c2-c2ccc(OCc4cncnc4)cc2CC3)c1
294 to 295 | CC(=O)Nn1c(=S)[nH]c2cc(C(F)(F)F)ccc21
180 | CC(C)(O)c1onc(-c2ccccc2Cl)c1C(=O)c1nnn(Cc2cc(F)cc(C(F)(F)F)c2)c1-c1cccnc1
198 to 200 | O=C1C2C3COC2(C3)c2cccnc2N1c1ccccc1 (stereo not given)
133 to 134 | CCNC(=O)Oc1cc2c(cc1Cl)CCN(C)C[C@H]2c1ccccc1
123 to 126 | CSc1cccc(Oc2ncc(F)cc2C(=O)N[C@H]2CC[C@@H](CO)CC2)c1
124 | CCOC(=O)C1=C(N)NC(C)=C(C(=O)OC)C1c1cc([N+](=O)[O-])ccc1Cl (stereo not given)
111 to 112 | C=CCS(=O)c1c(O)cc(C)oc1=O (stereo not given)
95 to 96 | CC(C)(C)OC(=O)N1CCN(c2ccc(N)cc2)CC1
219 | ClCCCOc1cccc2c(OCCCCl)cccc12
235 to 237 | COc1ccc(C(=O)/C=C/c2ncn(C(c3ccccc3)(c3ccccc3)c3ccccc3)c2C)c2ccccc12
168 to 169 | C(=C\c1nc2ccccc2s1)/c1cccc(NCCCc2nnn[nH]2)c1
95 to 97 | OCCn1ccccc1=S
245 to 250 | Cn1nc(-c2cccc(-n3ncc4cc(C(C)(C)C)cc(F)c4c3=O)c2CO)cc(Nc2ccn(C[C@@H](O)CO)n2)c1=O
130 to 170 | O=C(Nc1ccc(C(=O)N2Cc3cccn3Cc3ccccc32)cc1)c1ccc2[nH]ccc2c1
222 to 223 | CCCCc1c2c(nn1C(C)(C)C)c(N)nc1ccccc12
125 to 130 | CC(C)(C)[S@](=O)N1CCC[C@H]1c1cccs1
165 to 167 | CC(C)Cn1c(CCCCNC(=O)OC(C)(C)C)nc2c(N)nc3ccccc3c21
148 to 149 | C=CCOc1ccccc1OCCNCC(O)COc1cccc2c1CC(=O)N2 (stereo not given)
58 to 61 | COC(=O)c1cccc(OC)c1I

melting point [°C] | Compound
146 to 149 | COc1ccc2c(c1)CCC1C2=CCC2(C)C1CCC21OCCO1 (stereo not given)
138 to 140 | N#Cc1ccccc1-c1ccc(C(F)(F)F)c(Cl)c1
125 to 127 | COC(=O)C(=CNC1CC1)C(=O)C=Cc1ccc(OC)cc1
120 | COc1ccccc1[C@@]1(O)C[C@@H](C)C[C@@H]2CN(Cc3ccccc3)C[C@@H]21 (racemic)
257 to 258 | CC(C)(C)C(NC(=O)c1ccc(Cl)cc1)Nc1c(Nc2cccnc2)c(=O)c1=O (stereo not given)
122 | Cn1nc(-c2ccccc2)nc1-c1ccccc1CO
35 | CCCCc1cc2cc(O)c(Cl)c(Cl)c2s1
96 to 98 | N=C(NCl)c1ccsc1
131 to 132 | Cc1ccc(S(=O)(=O)N2CCC(Sc3ccc(F)cc3)CC2)cc1
183 to 184 | N#Cc1sc(N)c(C#N)c1N1CCCCC1
244 to 247 | O=C(c1cc2cc3[nH]c(=O)oc3cc2[nH]1)N1CCC(Cc2ccc(F)cc2)CC1
180 to 182 | Nc1ncc(-c2ccncc2)cn1
204 | COc1ccc(-c2cc(=O)c3c(OCC(O)CO)cc(OCC(O)CO)cc3o2)cc1O (stereo not given)
85 to 87 | OCc1ccc2ccccc2c1OCc1ccccc1
194 to 195 | Cc1c(NC(=O)CC(C)(C)C)c(C)c2c(c1C(=O)O)OCC2c1ccc(C(C)C)cc1 (stereo not given)
103 to 107 | CC(C)(C)OC(=O)N[C@@H](Cc1ccc(Cc2ccccc2)cc1)C(=O)O
131 to 132 | O=C(O)c1csc(C(F)F)c1
> 250 | CCOC(=O)c1cc2cc[nH]c2cc1N
165 to 166 | Nc1cccc2cc(-c3ccccn3)[nH]c12
233 to 234 | CCC(=O)c1cc2n(c(=O)c1C)Cc1cc3ccccc3nc1-2
85 | OC1CCc2c(F)cc(F)cc2C1 (stereo not given)
160 | COc1c(C)cc(C(=O)c2cc(-c3ccc(Cl)cc3)c(N3CCOCC3)s2)nc1C
129 to 133 | CC(F)=C1CCC2C3CC=C4CC(O)CCC4(C)C3CCC12C (stereo not given)
185 to 187 | CC1Cc2cc3c(cc2C(c2ccc([N+](=O)[O-])cc2)=NN1C1=NCCS1)OCO3 (stereo not given)
100 to 102 | CC(O)CC1NC(=O)c2ccccc21 (stereo not given)

melting point [°C] | Compound
137 to 138 | Nc1sc2c(c1C(=O)c1cccc(C(F)(F)F)c1)CCN(CCc1ccccc1)C2
162 to 164 | COc1ccc(Cc2nc3cc(Cl)cc(CC(N)=O)c3o2)cc1OC1CCCC1
147 | COc1ccc(C)c(NC(=O)CC23CC4CC(CC(C4)C2)C3)c1
142 | OC1(c2ccccc2)CCN(CCC2COc3ccccc3O2)CC1 (stereo not given)
< 50 | CC(O)c1cc([N+](=O)[O-])ccc1F (stereo not given)
105 to 106 | COc1ccc2c(c1)Sc1cc(OC)c(Cl)cc1C(O)C2 (stereo not given)
205 | CCCCc1nc(SC)c(C(=O)O)n1Cc1ccc(-c2ccccc2S(=O)(=O)NC(=O)C(c2ccccc2)c2ccccc2)cc1
239 | O=C(NCc1ccc(Cl)cc1)c1cn2c3c(cc(CN4CCOCC4)cc3c1=O)OC(c1ccccc1O)C2 (stereo not given)
148 to 149 | CC(C)CNC(=NC#N)Nc1cccnc1
173 to 174 | Cc1nc(N2CCN(Cc3ccc(F)cc3)C2=O)sc1C(=O)NCc1ccc(C(F)F)o1
153 to 155 | Clc1ccc2c(c1)CCc1cccnc1C2N1CCNCC1 (single isomer, unassigned; (+))
115 to 117 | CCCCCS(=O)(=O)NC(=O)CCc1cc(C(C)C)nn1Cc1ccc(Cl)cc1Cl
234 to 237 | CC(C)Oc1c(C(N)=O)n(C)c2ccc(O)cc12
270 to 272 | O=C1CCC(c2ccc(-n3ccc(=O)cc3)cc2)=NN1
208 | Nc1nc2c(ncn2OCCCCP(=O)(O)O)c(=O)[nH]1
92 | Fc1cnc(OC(c2ccnc3cc(Cl)ccc23)C(F)(F)F)nc1 (stereo not given)
144 to 145 | N#Cc1sc2ncccc2c1Cl
179 to 181 | O=C1c2ccccc2S(=O)(=O)N1CCCCN1CCN(c2cc(O)cc3c2OCCO3)CC1
163 to 164 | C=C(C)Cc1c(C)c(NC=O)c(C)c(C)c1O
231 to 233 | O=C(O)c1ccc(COCc2csc3nc(C(=O)NCc4cccc(Br)c4)[nH]c(=O)c23)cc1
51 to 52 | Clc1ccccc1C1=NOCCS1
246 to 247 | Cc1nc2c(c3c1[nH]c1cccc(F)c13)C(=O)CC(C)(C)C2
228 | O=Cc1cc2cc(OCc3ccccc3)c(F)cc2nc1Cl
98 to 100 | O=Cc1c(Cl)cc(Cl)cc1OCc1ccccc1
123 to 125 | CC(C)n1nc(O)nc1N1CCCC1

melting point [°C] | Compound
180 to 181 | CC(C(N)=O)c1ccc2c(c1Cl)C(=O)Cc1ccccc1S2 (stereo not given)
133 to 135 | Cc1oc(-c2ccccc2)nc1CN(C)Cc1ccc(C[C@@H](C(=O)O)n2cccc2)cc1
230 to 233 | N#Cc1cccnc1CC1COc2cc3c(cc2O1)OCC31C(=O)Cc2ccccc21 (stereo not given)
102 to 105 | O=C1C[C@@H](COS(=O)(=O)c2ccccc2)N1
> 260 | Cc1cc(=O)n(-c2cc3c(cc2F)sc(=O)n3CC(N)=O)c(=O)n1C
181 to 182 | CC(C)(C)c1ccc(C(=O)Nc2cc(OCCCO/N=C/c3cn(Cc4ccccc4)c4ccccc34)ccc2C(=O)O)cc1
159 to 161 | Cc1oc(-c2ccc(OCC(F)(F)F)cc2)nc1COc1ccc(CN(O)C(N)=O)cc1
98.5 to 99.4 | C(#Cc1ccccn1)CCc1nc2ccccc2s1
136 to 138 | CN(C)C(=O)Cn1c(-c2cccc(C(F)(F)F)c2)nc2cccnc21
131 | COc1ccc(C#CC(C)N(O)C(N)=O)o1 (stereo not given)
82 to 84 | Cc1coc2cc(N3CCCCC3)c(Cl)cc12
205 to 211 | COc1ccc(COCc2nc(C(C)C)c(Sc3cc(Cl)cc(Cl)c3)n2CC(=O)c2ccccc2)cc1
> 330 | O=C1Nc2cc(Cl)ccc2C(=O)C1c1ccccn1 (stereo not given)
222 to 223 | COc1cc(CNc2c(NC(C)(C)C)c(=O)c2=O)cc(OC)c1
150 to 151 | Cc1c(C(=O)O)ccc(S(C)(=O)=O)c1-c1ccon1
135 | CC(NC(=O)c1cc(Cl)ccc1N)C1CC1 (stereo not given)
50 to 51 | O=C1CC(SCc2ccccc2)N1 (stereo not given)
118 to 120 | COC(=O)C(Oc1ccc(C(C)(C)C)cc1)c1ccc(Oc2ccc(Cl)cc2)cc1 (stereo not given)
63 | O=Cc1ccc(C(F)(F)F)cc1[N+](=O)[O-]
109 to 112 | COC1=C(OC)C(=O)C2=C(CCC(CCOc3ccc(-c4ccccc4)cc3)CC2)C1=O
121 to 125 | COc1ccc(CC#N)c2c1OCCO2
136 to 138 | c1ccc2c(c1)NC(C1CCCCC1)c1cccc3c1N2CC3 (stereo not given)
44 to 46 | COc1cccc2c1CCNC2=S

Compound | melting point [°C]
CN1C(=O)[C@H](NC(=O)CCc2ccc(Cl)cc2Cl)N=C(c2ccccc2)c2ccccc21 | 92 to 95
O=C1c2cc(Cl)ccc2-n2cnc(-c3noc(CCl)n3)c2[C@@H]2CCN12 | 238 to 241
COc1cccc(CC(=O)N[C@H]2N=C(c3ccccc3)c3ccccc3N(C)C2=O)c1 | 198 to 199
COc1ccc(C#CCO)c2c1c(CCN(C)C)cn2C | 101 to 104
CC(CN(C)C)C(C#N)(c1ccccc1)c1ccccc1 (single isomer, unassigned; (-)) | 102 to 103
OCCCN1CCN(c2ccccc2)CC1 | 72 to 73
N=C(NCCCc1c[nH]cn1)N[N+](=O)[O-] | 156 to 158
